From patent publication US20100316574A1, “Oncofetal Antigen/Immature Laminin Receptor Peptides for the Sensitization of Dendritic Cells for Cancer Therapy” (Quantum Immunologics, Inc., priority 2009, published 2010)
Entries after “also recorded” stand apart in the source; their conditions may differ.

Legend:
[1] = test system: dendritic cells pulsed with recombinant human OFA/iLRP; experiment: FACS binding of fluorescein-labeled 129 and 129-a peptides to dendritic cells pulsed with rHu OFA; format: cell-based; details: FITC-labeled peptide on dendritic cells pulsed with rHu OFA 100 ng/ml
Experimental: CD 14+ monocytes were grown in serum-free dendritic cell medium containing: 1000 IU/ml GM-CSF and 1000 IU/ml of IL-4 (Cell Genix Antioch, IL) at 1×10^6 cells per ml. The cells were pulsed with rHu OFA at 100 ng/ml for 36 hours. The pulsed dendritic cells were matured using serum-free dendritic cell medium containing: 10 ng/ml IL-1beta, 1000 IU/ml IL-6, and 5 ng/ml TNF-alpha with 1 μm prostaglandin E2 and matured for 2 days. At the end of two days, the cells were scraped from the plate and analyzed using flow cytometry analysis.
Briefly, the peptide that was labeled on a cysteine included allowing for conjugation using Fluorsceine-5-maledimide (Pierce/Thermo, Rockford, Ill.) following standard protocols. The unbound fluorsceine was removed using a standard dye-removal column (Pierce/Thermo, Rockford, Ill.). This cysteine can also be used to conjugate the peptides to a range of different products.
To determine if the maturation was successful, the cells were analyzed with CD14, CD83, CD80/86, and Class II MHC (HLA-DR) following standard protocols (R&D systems; Minneapolis, Minn.). Briefly, 0.5×10^5 cells per tube were suspended in 25 μl or phosphate buffered saline with 2% fetal calf serum. […] The cells were resuspended in 400 μl of PBS with 2% FCS and analyzed. If the cells could not be analyzed immediately, then they were fixed in 0.5% formaldehyde/PBS at 4° C. in the dark. […]

[2] = test system: DU145 cells; experiment: CellTiter-Blue cell viability assay; format: cell-based; details: for effect on cell viability: compared to peptide diluent control; for cell viability versus controls: overnight
Experimental: All cells were grown in RPMI 1640 with L-glutamine; 100 I.U. Penicillin, 100 μg/ml Streptomycin, and 10% fetal calf serum at 37° C. in a humid chamber (Mediatech, Inc. Manassas, Va.). DU 145 cells were obtained from American Type Culture Collection (ATCC, Manassas, Va.) and grown in media following standard protocols. DU145 cells were grown to between 75 and 85% density and collected following standard protocols and counted using a modified Neubauer brightline hemacytometer and suspended at 400,000 cell/ml.
(§1) Peptides were dissolved in either phosphate buffered saline (PBS) or DMSO and then PBS to a maximum of 20% DMSO and a 2× solution was made and placed into complete medium. After being diluted to appropriate concentration, 50 μl was dispensed into a 96-well assay plate, either coated with laminin/entactin complex (50 μg/ml) or untreated (Black with clear bottom) (Corning Life Sciences, Corning, N.Y.), 50 μl of cells (20,000 cells/well), and were grown overnight. Cells then had 20 μl of CellTiter-Blue added ((Promega, Madison, Wis.)) and incubated for an additional 2 hours at 37° C. Cells were then read on a DTX-880 (Beckman Inc.) following standard fluorescent protocols with an integration time of 0.001 sec. To determine if caspase activity was induced, Caspase 3/7 activity was determined using ApoOne assay (Promega, Madison, Wis.). The data was exported to Excel and then to Prism 5.0 (GraphPad Software, Inc) where it was plotted, and analyzed for statistical differences between the background control (diluents used for the peptide) using a one-way ANOVA.

[3] = test system: Caspase 3/7; experiment: ApoOne Caspase 3/7 assay; format: cell-based; details: DU145; data not shown
Experimental: as §1

[4] = test system: T-cells; details: previously described epitope; cited from earlier work

Substance: Ac-CADHQPLTEASYVNLPT-amide (Ac-CADHQPLTEASYVNLPT-NH2) [129 peptide, start site 129]
- mean fluoresence intesity (MFI) [1]: 11,390+/−500.6

Substance: GRFTPGTFTNQIQAAFREP [peptide 2, start site 101]
- effect on cell viability [2]: significant effect
- effect on cell viability ([2]; listed as Peptide 2): significantly different than the control
- decrease of cell viability ([2]; versus control, p<0.05): over 2 fold
- Caspase 3/7 activity / induction of apoptosis [3]: no significant change

Substance: TWEKLLLAARAIVAIENPAD [peptide 1]
- cell viability versus controls ([2]; laminin/entactin coated plate (laminin)): no statistical difference
- cell viability versus controls ([2]; uncoated plate (w/o laminin)): no statistical difference

Substance: amino acids 49-60: peptide made against the previously described OFA/iLRP epitope (amino acids 49-60), Rohrer 2006 (INLKRTWEKLLL; UniProt P08865 49-60, looked up, fragment) [reference compound]
- T-cell proliferation [4]: able to proliferate T-cells
- effect on cell viability [2]: unable to affect cell viability; also recorded: did not affect cell viability
- Caspase 3/7 activity / induction of apoptosis [3]: unable to affect cell viability or induce apoptosis
